Assay: Release of Valsartan from plant fiber bundle base (toothpick) in physiological saline, fluorescence analysis
Assay type: physicochemical
Conditions: toothpick impregnated at 10 mg/mL, released in physiological saline for 1, 3, 5, 10 minutes, 38 repetitions, FIG. 4
Excerpt: Firstly, in step 100, antihypertensive agents are fixed onto a plant fiber bundle base such as a toothpick, i.e., solid antihypertensive agents attached onto the plant fiber bundle base. In this step, the plant fiber bundle base may be impregnated in liquid antihypertensive agents. Because of the physical adsorption properties of plant fiber bundles, the composition of the liquid antihypertensive agents is gradually adsorbed into the plant fiber bundles until the amount of antihypertensive agents on plant fiber bundle base reaches a saturated condition. In one embodiment, the concentration of antihypertensive agents (e.g., Valsartan) in liquid form is 2.5, 5, 8, 10, 20 mg/mL, respectively. Then, the plant fiber bundle base is removed. […] Next, in step 102, fluorescence analysis of the released anti-hypertensive agents is performed. […] Based on this feature, an optical instrument is used for fluorescence analysis of different concentrations of Valsartan affixed to toothpicks. Fluorescence analysis of different concentrations of Valsartan was performed using ImageJ image analysis software. […] An optical instrument is used to collect fluorescence data of Valsartan after release in physiological saline in 38 repetitions of the experiment. […]

With `CCCCC(=O)N(Cc1ccc(-c2ccccc2-c2nnn[nH]2)cc1)[C@H](C(=O)O)C(C)C` [Valsartan] the “proportion of release (release percentage) of Valsartan over time” value was “increases until the saturation level is reached”.
